Laboratory results: patent US9034596B1, “Method for fluorescent staining of cellular and intracellular membranes” (KUWAIT UNIVERSITY, priority 2014, dated 2015)

Key:
LS174T cells = test: fluorescent staining of cellular and intracellular membranes, confocal microscopy; type: cell-based
Protocol: Monolayer cultures were grown in RPMI 1640 medium (Gibco) supplemented with 10% fetal bovine serum (FBS) (Gibco), 1% L-glutamine (Gibco), 1% penicillin/streptomycin (Gibco) as an antibacterial agent and 0.1% amphotericin (Sigma) as an antifungal agent. The cultures were maintained at 37° C. in a CO2 incubator with humidified atmosphere, 5% CO2 and 95% air. Confluent cultures (80-90%) were used for experiments. The cells were then detached by trypsinization and incubation at 37° C. for 2-3 minutes. Fresh medium (10× to trypsin's volume) was added to inhibit trypsin action. The cell suspension was centrifuged at 500 g for three minutes. The supernatant was discarded and the pellet obtained was resuspended in fresh medium. Cells were counted and seeded onto sterile glass cover slips at 5×10^4 cells per slip and incubated overnight to adhere. ZnTnHex-4-PyPCl4 was added and the cells were incubated with the compound in the dark. The cells were then fixed with ice cold absolute ethanol added to a final concentration of 60%, and the plate containing the slips was kept on ice for 10 minutes. The cells were washed with PBS twice and the slips were transferred onto microscopic slides. Vectashield mounting medium from Vector Laboratories was used. The slides were examined using a Zeiss LSM 510 META confocal fluorescence microscope fitted with standard FITC, Rhodamine and DAPI filter sets.
LS174T cells were counted and seeded onto sterile glass cover slips at 5×10^4 cells per slip and incubated over-night to adhere. The dye was added to a final concentration of 0.5-2.5 μM and the cells were incubated with ZnTnHex-4-PyPCl4 in the dark for 15-30 minutes. The cells were then fixed with ice cold absolute ethanol added to a final concentration of 60%, and the plate containing the slips was kept on ice for 10 minutes. The cells were washed with PBS twice and the slips were transferred onto microscopic slides. […] The slides were examined using a Zeiss LSM 510 META confocal fluorescence microscope fitted with standard FITC, Rhodamine and DAPI filter sets.

[1] = storage stability of sterilized probe; conditions: refrigerated in the dark
cells = test: harm to cells incubated with the fluorescent probe; conditions: 20 μM, shielded from light

CCCCCC[n+]1ccc(C2=C3C=CC4=[N+]3[Zn]35[n]6c2ccc6C(c2cc[n+](CCCCCC)cc2)=C2C=CC(=[N+]23)C(c2cc[n+](CCCCCC)cc2)=c2ccc([n]25)=C4c2cc[n+](CCCCCC)cc2)cc1 [ZnTnHex-4-PyPCl4, Zn(II) meso-tetrakis(N-n-hexylpyridinium-4-yl)porphyrin tetrachloride]
subcellular localization (LS174T cells; LSI74T cells, 20 μM, 24 hours pre-incubation in the dark, FIG. 2): mitochondria, lysosomes, the ER and the plasma membrane
time to stain cellular and intracellular membranes (LS174T cells; concentrations as low as about 0.5-2.5 μM): ≤ 15 min
concentration needed for staining membranes (LS174T cells; living mammalian cells): 0.5 to 1 µM
solubility in water (solubility): water soluble
storage stability [1]: kept for months
harm to cells (cells): without harming cells
